# How the values were obtained:
# CYP3A = details: in vitro; complex with the vitamin D receptor; CYP3A substrate midazolam; cited from earlier work
# [1] = tested on: cholesterol (total, LDL-cholesterol, and HDL-cholesterol); experiment: Serum cholesterol concentrations (enzymatic assay) in patients on atorvastatin with and without supplemental vitamin D; assay type: in vivo, human; details: for Cholesterol Total: serum; for Cholesterol Total / LDL-cholesterol / HDL-cholesterol: mean ± S.D.; for LDL-cholesterol: calculated LDL
# Description: Study protocol. A prospective crossover study was performed. […] Columbus Ohio 43216). All other prescribed medications were continued unchanged throughout the study. […] Lipid concentration data. Serum samples were analyzed for cholesterol, LDL-cholesterol (calculated) and HDL-cholesterol concentrations by enzymatic assay (Quest Diagnostics, San Jose, Calif.).
# [2] = tested on: cholesterol (total, LDL-cholesterol); experiment: Example 3: 1000 IU/day vitamin D for 12 weeks in humans not receiving atorvastatin, cholesterol; assay type: in vivo, human; details: one middle-aged subject
# Description: A study is performed with 1000 IU/day of either vitamin D2 or vitamin D3 or identically packaged placebo for a period of 12 weeks. Cholesterol (total, LDL-cholesterol, HDL-cholesterol) and triglycerides are evaluated before and during supplemental vitamin D or placebo. Focus is on adult humans with or without known lipid disorders that are not receiving atorvastatin.
# [3] = Serum vitamin D metabolite concentrations (LCMSMS) in patients on atorvastatin, crossover with/without supplemental vitamin D; assay type: in vivo, human; details: vitamin D supplementation 800 IU/day for six weeks (On-D), mean ± S.D.
# Description: Study protocol. A prospective crossover study was performed. […] If subjects were taking vitamin D supplementation at recruitment, assigned study order was “On-D” after six week of standardized study dispensed vitamins followed by the “Off-D” study after six weeks of vitamin D discontinuation. […] All other prescribed medications were continued unchanged throughout the study.
# circulating cholesterol = experiment: Example 2: atorvastatin with 1000 IU/day vitamin D2 or D3 or placebo for 12 weeks, circulating cholesterol; assay type: in vivo, human; details: co-administration with atorvastatin
# Description: The focus is on clinical populations including the elderly, frail, and minorities under steady-state conditions and with conditions reflecting “usual” clinical conditions with use of sparse sampling techniques and minimal impact on clinical care. […] About 90 participants are enrolled, with 30 receiving placebo, 30 receiving vitamin D2, and 30 receiving vitamin D3. Total vitamin D intake is analyzed (primarily driven by dairy food intake and supplements), and patients with major absorptive disorders (intestinal bypass surgery, feeding tubes requiring liquid diets, etc) are excluded. Other factors that could affect vitamin D absorption such as alcohol intake are evaluated.
# [4] = Plasma atorvastatin and metabolite concentrations/AUC (LC-MS/MS) with and without supplemental vitamin D; assay type: in vivo, human
# Description: Study protocol. A prospective crossover study was performed. […] Columbus Ohio 43216). All other prescribed medications were continued unchanged throughout the study. […] The sample cone voltage and collision energy for all analytes and internal standard were set at 30 V and 20 eV, respectively. Chromatography was performed on BDS C18 column (50×4.6 mm, 5 μm particle size, Thermo Electron Corporation, Bellefonte, Pa.). […] Twenty-five percent of flow liquid was split into the mass system. […] The organic layer then transferred to another tube and evaporated by N2 gas and reconstituted with 0.2 ml 50% CH3CN containing 0.05% acetic acid and 5 mM ammonium acetate, and 20 μl was injected onto column. Lower limit of detection was 0.313 ng/ml for atorvasatin and metabolites. […] Area under the plasma concentration vs. time curve (AUC) was calculated by trapezoidal rule.
# [5] = no vitamin D supplementation (Off-D), atorvastatin
# [6] = vitamin D supplementation 800 IU/day six weeks (On-D), patients on atorvastatin
compound,measurement,setting,value
"C=C1/C(=C\C=C2/CCC[C@]3(C)[C@@H]([C@H](C)CCCC(C)(C)O)CC[C@@H]23)C[C@@H](O)C[C@@H]1O [1,25-(OH)2 vitamin D]",regulation of CYP3A activity,CYP3A,increased transcription of CYP3A protein and greater metabolism of the CYP3A substrate midazolam
CC(C)c1c(C(=O)Nc2ccccc2)c(-c2ccccc2)c(-c2ccc(F)cc2)n1CC[C@@H](O)C[C@@H](O)CC(=O)O [atorvastatin],Cholesterol Total,"[1]; no vitamin D supplementation (Off-D), atorvastatin 45±33 mg/day",169 ± 35 mg/dL
same,Cholesterol Total,"[1]; no vitamin D supplementation (Off-D), atorvastatin 45±33 mg/day, listed as Atorvastatin",169 ± 35 mg/dL
same,LDL-cholesterol,[1]; [5],97 ± 28 mg/dL
same,LDL-cholesterol,"[1]; no vitamin D supplementation (Off-D), atorvastatin, listed as Atorvastatin",97 ± 28 mg/dL
same,HDL-cholesterol,[1]; [5],47 ± 11 mg/dL
vitamin D,difference in HDL-cholesterol with vitamin D supplementation,[1]; On-D versus Off-D,No difference
same,subjects with lower total cholesterol during supplemental vitamin D,"[1]; On-D versus Off-D, patients on atorvastatin",thirteen of sixteen
same,mean difference in LDL-cholesterol,"[1]; after six weeks of vitamin D supplementation, co-administered with atorvastatin",14.4%
same,Cholesterol Total,"[1]; vitamin D supplementation 800 IU/day six weeks (On-D), patients on atorvastatin 45±33 mg/day",157 ± 37 mg/dL
same,LDL-cholesterol,[1]; [6],83 ± 30 mg/dL
same,HDL-cholesterol,[1]; [6],44 ± 11 mg/dL
same,total cholesterol,"[2]; after about 12 weeks of 1000 IU vitamin D (single and combined forms of D2 and D3), 241 before vitamin D",201 mg/dL
same,LDL-cholesterol,"[2]; after about 12 weeks of 1000 IU vitamin D, 125 before vitamin D",112 mg/dL
same,LDL-cholesterol,"[2]; after about 12 weeks of 1000 IU vitamin D, 144 before vitamin D",98 mg/dL
same,total cholesterol,"[2]; after about 12 weeks of 1000 IU vitamin D, 238 before vitamin D",219 mg/dL
same,Vitamin D (25-OH) Total 25-hydroxy serum concentration,[3]; patients on atorvastatin,29 ± 14 ng/mL
same,"Vitamin D (active) 1,25-dihydroxy serum concentration",[3]; patients on atorvastatin,38 ± 15 pg/mL
same,"D3, 25-hydroxy serum concentration",[3],20 ± 17 ng/mL
"C=C1CC[C@H](O)C/C1=C/C=C1\CCC[C@]2(C)[C@@H]([C@H](C)/C=C/[C@H](C)C(C)C)CC[C@@H]12 [vitamin D2, ergocalciferol]",circulating cholesterol compared with atorvastatin and placebo,circulating cholesterol,additional reduction
"CC(C)c1c(C(=O)Nc2ccccc2O)c(-c2ccccc2)c(-c2ccc(F)cc2)n1CCC(O)CC(O)CC(=O)O (centres unmarked) [2-OH, 2-hydroxyatorvastatin acid]",ratio of hydroxy-atorvastatin acid to atorvastatin,[4]; during supplemental vitamin D,0.74±0.36
same,ratio of hydroxy-atorvastatin acid to atorvastatin,[4]; off-D,0.81±0.32
"CC(C)c1c(C(=O)Nc2ccc(O)cc2)c(-c2ccccc2)c(-c2ccc(F)cc2)n1CC[C@@H](O)C[C@@H](O)CC(=O)O [4-hydroxy-atorvastatin acid, 4-hydroxyatorvastatin acid]",AUC/concentrations during vitamin D co-administration compared to the off-D study period,[4]; comparison between study periods,significantly lower
same,ratio of hydroxy-atorvastatin acid to atorvastatin,[4]; during supplemental vitamin D,0.09±0.09
same,ratio of hydroxy-atorvastatin acid to atorvastatin,[4]; off-D,0.10±0.09
"C=C1CC[C@H](O)C/C1=C/C=C1\CCC[C@]2(C)[C@@H]([C@H](C)CCCC(C)C)CC[C@@H]12 [D3, cholecalciferol]",circulating cholesterol compared with atorvastatin and placebo,circulating cholesterol,additional reduction

# Reference: patent US20090163452A1, “COMPOSITIONS AND METHODS FOR LOWERING SERUM CHOLESTEROL” (priority 2007, published 2009)
